These results are taken from US20100292081A1, “Herbicidal Control Using Sulfentrazone and Dithiopyr” (FMC Corporation, priority 2009, published 2010).

Common to all, as to assay type: in vivo
The subject of assay [1] is large crabgrass (Digitaria sanguinalis). Description: Pre-emergent herbicidal evaluation on turf plots (Example 1), large crabgrass. The text has this:
(§1) The presence of a synergistic effect between the two active ingredients is established with the aid of the Colby equation (see Colby, S. R., “Calculating Synergistic and Antagonistic Responses of Herbicide Combinations”, Weeds 1967, 15, pg 20-22): E=X+Y−(XY/100).
(§2) Using the method of Colby, the presence of a synergistic interaction between two active ingredients is established by first calculating the expected activity, ‘E’, of the mixture based on activities of the two components applied alone. In the equation above, ‘X’ is the herbicidal activity in percentage control of sulfentrazone applied alone at rate ‘x’. The ‘Y’ term is the herbicidal activity of dithiopyr applied alone at rate ‘y’. The equation calculates ‘E’, the herbicidal activity of the mixture of ‘X’ at rate ‘x’ with ‘Y’ at rate ‘y’. If ‘E’ is lower than the observed activity, synergy is present. If the herbicidal effects are strictly additive, and no interaction has occurred, ‘E’ will be equal to or higher than the observed activity.
(§3) Test compositions containing sulfentrazone (Dismiss™ Turf Herbicide), dithiopyr (DIMENSION® Ultra 40WP Specialty Herbicide) and mixtures thereof, were diluted with water to provide the appropriate test rate concentrations.
(§4) The size of each experimental turf plot was 4 feet by 4 feet, treating the inner 10 ft^2 per plot. The application of each test composition was performed with a pressurized back-pack sprayer, calibrated to spray between 10 and 15 gallons per acre. Four replications were made for each test rate along an untreated control plot.
In order t to provide a measure of the effectiveness of a herbicide's performance weed control ratings were based on visual observations of the presence or absence of various weeds or of symptoms (necrosis, wilting, curling of leaves, discoloration etc.) on weeds compared to lack of symptoms. Ratings are based on the 0 to 100 rating system, where 0 equals no control and 100 equals complete control, which generally makes use of direct-percentage figures. In this system the standard basis for comparison is an untreated weedy check. […]

The subject of assay [2] is parsley piert (Alchenilla arvensis). Description: Pre-emergent herbicidal evaluation on turf plots (Example 1), parsley piert.
Text: as §1, §2, §3, §4
(§5) Control of large crabgrass (Digitaria sanguinalis), parsley piert (Alchenilla arvensis), common chickweed (Stellaria media) and shiny cudweed (Gnaphalium spicatum) was evaluated at 23 days after treatment (DAT) for each test rate. In order t to provide a measure of the effectiveness of a herbicide's performance weed control ratings were based on visual observations of the presence or absence of various weeds or of symptoms (necrosis, wilting, curling of leaves, discoloration etc.) on weeds compared to lack of symptoms. […]

Assay [3] relates to common chickweed (Stellaria media). Nature of the assay: Pre-emergent herbicidal evaluation on turf plots (Example 1), common chickweed.
Text: as §1, §2, §3, §4, §5

Assay [4] relates to shiny cudweed (Gnaphalium spicatum). Nature of the assay: Pre-emergent herbicidal evaluation on turf plots (Example 1), shiny cudweed.
Text: as §1, §2, §3, §4, §5

The subject of assay [5] is broadleaf weeds (medic, buckhorn plantain, clover, red sorrel, dandelion). Nature of the assay: Post-emergent herbicidal evaluation on turf plots (Example 2), broadleaf weeds in total. The following applies: 45 DAT, NIS 0.25% V/V.
Text: as §1, §2
(§6) Control of large crabgrass (Digitaria sanguinalis), parsley piert (Alchenilla arvensis), common chickweed (Stellaria media) and shiny cudweed (Gnaphalium spicatum) was evaluated at 23 days after treatment (DAT) for each test rate. In order t to provide a measure of the effectiveness of a herbicide's performance weed control ratings were based on visual observations of the presence or absence of various weeds or of symptoms (necrosis, wilting, curling of leaves, discoloration etc.) on weeds compared to lack of symptoms. Ratings are based on the 0 to 100 rating system, where 0 equals no control and 100 equals complete control, which generally makes use of direct-percentage figures. In this system the standard basis for comparison is an untreated weedy check. Counts are made of each weed species found in the untreated area of the study. This provides a basis to give a precise representation of both weed infestation and degree of control provided by various chemical treatments. Counts are made on randomly selected areas which are generally 1 square foot to 1 square yard in size. Ratings are made for each weed species found in the untreated treatments. For example, a random area in an untreated plot has 10 yellow nutsedge plants per square foot equaling 0% control. A treated plot has only 1 yellow nutsedge plant found in the randomly selected area equaling 90% control.
Test compositions containing sulfentrazone (Dismiss™ Turf Herbicide), dithiopyr (DIMENSION® Ultra 40WP Specialty Herbicide) and mixtures thereof, were diluted with water to provide the appropriate test rate concentrations. A non-ionic surfactant (NIS) was added to each test solution, 0.25% V/V.
The size of each experimental turf plot was 4 feet by 4 feet, treating the inner 10 ft^2 per plot. The post-emergence application of each test composition was performed with a pressurized back-pack sprayer, calibrated to spray between 10 and 15 gallons per acre. Four replications were made for each test rate along an untreated control plot.
Control of broadleaf weeds was evaluated at 45 days after treatment (DAT) for each test rate. The broadleaf weeds included medic (Medicago sp.), buckhorn plantain (Plantago lanceolata), clover (Trifolium sp.), red sorrel (Rumex acetosella) and dandelion (Traxacum afficinale). Percent control of the broadleaf weeds was reported as a total number of broadleaf weeds controlled, not as individual species. The evaluation results were compared with results observed in untreated control plots in the same trials as described in Example 1 to determine % control and are summarized in Table 2 below. There was no damage to the turf grass at any rate tested. The Colby equation expected values are also in Table 2.

Assay [6] deals with crabgrass (Digitaria sp.). Description: Pre-emergence control of crabgrass on turf plots (Example 3).
Text: as §1, §2, §6, §3, §4
(§7) Pre-emergence control of crabgrass (Digitaria sp.) was evaluated 180 days after treatment (DAT). Post-emergence control of curly dock (Rumex crispus) and shiny cudweed (Gnaphalium spicatum) parsley were evaluated at 65 days after treatment for each test rate. The evaluation results were compared with results observed in untreated control plots in the same trials as described in Example 1 to determine % control and are summarized in Table 3 below. There was no damage to the turf grass at any rate tested. The Colby equation expected values are also in Table 3.

Assay [7] concerns curly dock (Rumex crispus). Description: Post-emergence control of curly dock on turf plots (Example 3).
Text: as §1, §2, §6, §3, §4, §7

The test system of assay [8] is shiny cudweed (Gnaphalium spicatum). Description: Post-emergence control of shiny cudweed on turf plots (Example 3).
Text: as §1, §2, §6, §3, §4, §7

Assay [9] relates to crabgrass (Digitaria sp.). Description: Early post-emergent control of crabgrass on turf plots (Example 4). The following applies: 1 to 4 leaf stage, 45 DAT, X-77 0.25% V/V.
Text: as §1, §2, §6
Test compositions containing sulfentrazone (Dismiss™ Turf Herbicide), dithiopyr (DIMENSION® Ultra 40WP Specialty Herbicide) and mixtures thereof, were diluted with water to provide the appropriate test rate concentrations. A non-ionic surfactant (X-77) was added to each test solution, 0.25% V/V. […]
Control of crabgrass (Digitaria sp.) was evaluated at 45 days after treatment for each test rate. […]

For the compound `Cc1nn(-c2cc(NS(C)(=O)=O)c(Cl)cc2Cl)c(=O)n1C(F)F` [Sulfentrazone, N-[2,4-dichloro-5-[4-difluoromethyl-4,5-dihydro-3-methyl-5-oxo-1H-1,2,4-triazol-1-yl]phenyl]methanesulfonamide], the “% Control of Weeds Large Crabgrass 132 DAT” value amounted to 23% in assay [1] (0.25 lb/ac) and 7% in [1] (.0125 lb/ac). In addition, the “% Control of Weeds Parsley Piert 23 DAT” value in assay [2] (0.25 lb/ac) is 47%; in assay [2] (.0125 lb/ac), 40%. Also, the “% Control of Weeds Common Chickweed 23 DAT” value is 45% in assay [3] (0.25 lb/ac) and 23% in [3] (.0125 lb/ac). The results for the “% Control of Weeds Shiny Cudweed 23 DAT” value in assay [4] (0.25 lb/ac) and in [4] (.0125 lb/ac) were 43% and 31%, respectively. Moreover, the “% Broadleaf Weed Cover” value in assay [5] (0.125 lb/ac) was determined as 15%; in [5] (0.25 lb/ac) it was 10%. Further, the “% Control of Broadleaf Weeds” value in assay [5] (0.125 lb/ac) amounted to 16%; in assay [5] (0.25 lb/ac), 44%. The “% Control of Weeds Crabgrass 180 DAT Pre-emergent application” value in assay [6] (0.0625 lb/ac), in [6] (0.125 lb/ac) and in assay [6] (0.25 lb/ac) was 0% each time. Besides, the figures for the “% Control of Weeds Curly Dock 65 DAT Post-emergent application” value in [7] (0.0625 lb/ac), in assay [7] (0.125 lb/ac) and in assay [7] (0.25 lb/ac) were 0%, 16% and 20%, respectively. Further, the “% Control of Weeds Shiny Cudweed 65 DAT Post-emergent application” value in assay [8] (0.0625 lb/ac) is 30%; in [8] (0.125 lb/ac), 50%; in assay [8] (0.25 lb/ac), 50%. Moreover, the “% Control of Crabgrass” value in assay [9] (0.125 lb/ac) was found to be 30%; in assay [9] (0.25 lb/ac), 36%.

For the compound `CSC(=O)c1c(C(F)F)nc(C(F)(F)F)c(C(=O)SC)c1CC(C)C` [Dithiopyr, S,S′-dimethyl 2-(difluoromethyl)-4-(2-methylpropyl)-6-(trifluoromethyl)-3,5-pyridinedicarbothiolate], the “% Control of Weeds Large Crabgrass 132 DAT” value in [1] (0.5 lb/ac) stood at 88%. In [2] (0.5 lb/ac), the “% Control of Weeds Parsley Piert 23 DAT” value is 38%. Moreover, in assay [3] (0.5 lb/ac), the “% Control of Weeds Common Chickweed 23 DAT” value is recorded as 53%. Also, the “% Control of Weeds Shiny Cudweed 23 DAT” value in assay [4] (0.5 lb/ac) is given as 29%. The “% Broadleaf Weed Cover” value was 21% in assay [5] (0.125 lb/ac) and 8% in [5] (0.25 lb/ac). Besides, the “% Control of Broadleaf Weeds” value came out at 0% in assay [5] (0.125 lb/ac) and 55% in assay [5] (0.25 lb/ac). For the same compound, the “% Control of Weeds Crabgrass 180 DAT Pre-emergent application” value was determined as 59% in assay [6] (0.0125 lb/ac) and 23% in assay [6] (0.25 lb/ac). For the same compound, the results for the “% Control of Weeds Curly Dock 65 DAT Post-emergent application” value in [7] (0.0125 lb/ac) and in assay [7] (0.25 lb/ac) were 36% and 60%, respectively. Moreover, the “% Control of Weeds Shiny Cudweed 65 DAT Post-emergent application” value in assay [8] (0.0125 lb/ac) turned out to be 53%; in [8] (0.25 lb/ac), 60%. Moreover, the “% Control of Crabgrass” value was 50% in assay [9] (0.25 lb/ac) and 88% in [9] (0.5 lb/ac).
